The test system of experiment [1] is Granta-519. The experiment in a line: Cytotoxicity against human Granta-519 cells assessed as reduction in cell viability incubated for 72 hrs by MTS assay. It is filed as functional, cell-based. The following applies: Granta-519, 72 h. A general note: Tetrazolium dyes change colour on reduction, which living cells bring about.
Experiment [2] can be described thus: Cytotoxicity against human Ri-1 cells assessed as reduction in cell viability incubated for 72 hrs by MTS assay. The following applies: Ri-1, 72 h. It is filed as functional, cell-based.
Experiment [3] has as its system Pfeiffer. In words: Cytotoxicity against human Pfeiffer cells assessed as reduction in cell viability incubated for 72 hrs by MTS assay. The format is functional, cell-based.
Experiment [4] has as its target T1, Protein cereblon/F-box-like/WD repeat-containing protein TBL1X (Homo sapiens) (UniProt Q96SW2+O60907). In words: PROTAC activity at CRBN/TBL1X in human Ri-1 cells assessed as TBL1X level relative to control at 0.008 uM incubated for 6 hrs by Western blotting analysis (reference value: 1). The format is cell-based. (In general: In western blotting, separated proteins are transferred to a membrane and probed.)

Experiment [5] has as its target T1, Protein cereblon/F-box-like/WD repeat-containing protein TBL1X (Homo sapiens). In words: PROTAC activity at CRBN/TBL1X in human Ri-1 cells assessed as […] TBL1X level at 5 uM incubated for 6 hrs by Western blotting analysis (reference value: 1). It is filed as cell-based.
The target is the same in experiment [6]. The experiment in a line: PROTAC activity at CRBN/TBL1X in human Ri-1 cells assessed as […] TBL1X level at 1 uM incubated for 6 hrs by Western blotting analysis (reference value: 1). The format is cell-based.
Experiment [7] has the same target. The experiment in a line: PROTAC activity at CRBN/TBL1X in human Ri-1 cells assessed as […] TBL1X level at 0.04 uM incubated for 6 hrs by Western blotting analysis (reference value: 1). It is filed as cell-based.
The target is the same in experiment [8]. In words: PROTAC activity at CRBN/TBL1X in human Ri-1 cells assessed as […] TBL1X level at 0.2 uM incubated for 6 hrs by Western blotting analysis (reference value: 1). The format is cell-based.
Experiment [9] has the same target. In words: PROTAC activity at CRBN/TBL1X in human Ri-1 cells assessed as decrease in TBL1X level incubated for 6 hrs by Western blotting analysis. It is filed as cell-based. The following applies: dose 0.008-5 µM.
For experiment [10] the target is unchanged. The experiment in a line: PROTAC activity at CRBN/TBL1X in human Ri-1 cells assessed as […] TBL1X level at 0.2 uM incubated for 6 hrs in presence of tega-vivint by Western blotting analysis (reference value: 1). The format is cell-based.
Experiment [11] shares this target. The experiment in a line: PROTAC activity at CRBN/TBL1X in human Ri-1 cells assessed as […] TBL1X level at 0.2 uM incubated for 6 hrs in presence of MG-132 by Western blotting analysis (reference value: 1). It is filed as cell-based.
Experiment [12] shares this target. The experiment in a line: PROTAC activity at CRBN/TBL1X in human Ri-1 cells assessed as […] TBL1X level at 0.2 uM incubated for 6 hrs in presence of pomalidomide by Western blotting analysis (reference value: 1). The format is cell-based.

Experimental findings from ChEMBL document CHEMBL6071187, “Design, Synthesis, and Biological Evaluation of Selective TBL1X Degraders” (ACS Med Chem Lett, 2024) are described below.

Each structure is given as a SMILES string.

T1 sequence (O60907 whole entry, looked up): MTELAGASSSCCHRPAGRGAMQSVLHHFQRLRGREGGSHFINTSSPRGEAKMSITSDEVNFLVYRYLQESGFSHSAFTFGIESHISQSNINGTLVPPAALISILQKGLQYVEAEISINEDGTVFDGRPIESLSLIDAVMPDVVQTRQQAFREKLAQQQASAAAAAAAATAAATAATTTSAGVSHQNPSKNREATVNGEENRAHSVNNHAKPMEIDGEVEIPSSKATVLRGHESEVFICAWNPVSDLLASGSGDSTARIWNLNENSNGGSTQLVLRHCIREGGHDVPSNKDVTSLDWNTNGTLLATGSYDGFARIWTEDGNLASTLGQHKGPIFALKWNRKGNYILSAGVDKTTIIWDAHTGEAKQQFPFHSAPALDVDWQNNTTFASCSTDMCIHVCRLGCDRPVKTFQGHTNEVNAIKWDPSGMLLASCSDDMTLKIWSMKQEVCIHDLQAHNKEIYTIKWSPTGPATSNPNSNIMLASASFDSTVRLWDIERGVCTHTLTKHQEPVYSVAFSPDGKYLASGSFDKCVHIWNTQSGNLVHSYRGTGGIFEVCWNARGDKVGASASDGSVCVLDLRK
T1 sequence (Q96SW2 whole entry, looked up): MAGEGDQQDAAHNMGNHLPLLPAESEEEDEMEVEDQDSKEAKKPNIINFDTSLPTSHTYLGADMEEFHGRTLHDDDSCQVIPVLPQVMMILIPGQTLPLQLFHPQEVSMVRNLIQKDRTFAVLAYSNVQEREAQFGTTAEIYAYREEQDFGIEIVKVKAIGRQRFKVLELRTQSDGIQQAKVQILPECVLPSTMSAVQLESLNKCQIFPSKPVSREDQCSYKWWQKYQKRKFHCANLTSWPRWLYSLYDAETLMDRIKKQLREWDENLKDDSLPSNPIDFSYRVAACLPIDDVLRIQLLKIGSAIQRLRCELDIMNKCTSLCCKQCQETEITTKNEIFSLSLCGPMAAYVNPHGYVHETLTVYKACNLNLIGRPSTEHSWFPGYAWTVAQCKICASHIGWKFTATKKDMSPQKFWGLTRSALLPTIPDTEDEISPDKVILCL

For `CC1CC(C)CN(S(=O)(=O)c2ccc3c(c2)/C(=N/O)c2cc(S(=O)(=O)N4CCN(C(=O)CCCCNc5cccc6c5C(=O)N(C5CCC(=O)NC5=O)C6=O)CC4)ccc2/C3=N\O)C1` (configuration not stated), the values for the IC50 in experiment [1], in experiment [2] and in experiment [3] were 496 nM, 560 nM and 647 nM, respectively. Moreover, the fold change (FC) stood at 0.9 in experiment [4]; 0.6 in experiment [5]; 0.91 in experiment [6]; 0.94 in experiment [7]; 1.02 in experiment [8].
For the compound `CC1CC(C)CN(S(=O)(=O)c2ccc3c(c2)/C(=N/O)c2cc(S(=O)(=O)N4CCN(C(=O)CCOCCNc5cccc6c5C(=O)N(C5CCC(=O)NC5=O)C6=O)CC4)ccc2/C3=N\O)C1` (configuration not stated), the IC50 in [1], in [2] and in experiment [3] was greater than 20000 nM in each case. In addition, the fold change (FC) was found to be 0.91 in experiment [4]; 0.79 in experiment [5]; 1.15 in experiment [6]; 1.11 in experiment [7]; 1.59 in experiment [8].
Consider `CC1CC(C)CN(S(=O)(=O)c2ccc3c(c2)C(=NO)c2cc(S(=O)(=O)N4CC(C)CC(C)C4)ccc2C3=NOCCCNC(=O)CCCCCCCCCCNc2cccc3c2C(=O)N(C2CCC(=O)NC2=O)C3=O)C1` (configuration not stated), for which the IC50 in experiment [1], in [2] and in experiment [3] was greater than 20000 nM in each case. The fold change (FC) is 0.64 in experiment [4]; 0.43 in experiment [5]; 0.18 in experiment [6]; 0.43 in experiment [7]; 0.44 in experiment [8]. In [9], the Activity result was “Dose-Dependent Effect”.
With `CC1CC(C)CN(S(=O)(=O)c2ccc3c(c2)/C(=N/O)c2cc(S(=O)(=O)N4CCN(C(=O)CCNc5cccc6c5C(=O)N(C5CCC(=O)NC5=O)C6=O)CC4)ccc2/C3=N\O)C1` (configuration not stated), the results for the IC50 in experiment [1], in [2] and in [3] were 399 nM, 797 nM and 564 nM, respectively. For the same compound, the fold change (FC) in experiment [4] amounted to 1; in [5], 1.34; in [6] it was 1.23; in experiment [7], 1.3; in [8], 1.28.
Take `CC1CC(C)CN(S(=O)(=O)c2ccc3c(c2)/C(=N/O)c2cc(S(=O)(=O)N4CCN(C(=O)CCCCCCNc5cccc6c5C(=O)N(C5CCC(=O)NC5=O)C6=O)CC4)ccc2/C3=N\O)C1` (configuration not stated): the IC50 – broadly, the concentration at which inhibition is half-maximal – in [1] is 439 nM; in experiment [2] it was 605 nM; in experiment [3], 343 nM. Further, the fold change (FC) in experiment [4] was found to be 0.91; in [5], 1.51; in experiment [6], 1.36; in experiment [7] it was 1.03; in experiment [8], 1.16.
On to `C[C@@H]1C[C@H](C)CN(S(=O)(=O)c2ccc3c(c2)C(=NO)c2cc(S(=O)(=O)N4C[C@H](C)C[C@H](C)C4)ccc2C3=NO)C1`, for which the IC50 was found to be 94.1 nM in [1], 86 nM in experiment [2] and 175 nM in experiment [3].
Consider `CC1CC(C)CN(S(=O)(=O)c2ccc3c(c2)C(=NO)c2cc(S(=O)(=O)N4CC(C)CC(C)C4)ccc2C3=NOCCCNC(=O)CCOCCNc2cccc3c2C(=O)N(C2CCC(=O)NC2=O)C3=O)C1` (configuration not stated), for which the IC50 is 1040 nM in [1], 1350 nM in experiment [2] and 554 nM in experiment [3]. The fold change (FC) worked out at 0.4 in experiment [4]; 0.48 in [5]; 0.43 in experiment [6]; 0.47 in experiment [7]; 0.51 in experiment [8].
As for `CC1CC(C)CN(S(=O)(=O)c2ccc3c(c2)C(=NO)c2cc(S(=O)(=O)N4CC(C)CC(C)C4)ccc2C3=NOCCCNC(=O)CCOCCOCCNc2cccc3c2C(=O)N(C2CCC(=O)NC2=O)C3=O)C1` (configuration not stated), the IC50 in [1] is greater than 20000 nM; in [2], greater than 20000 nM; in experiment [3], 1880 nM. Besides, the fold change (FC) in [4] was 0.37; in [5] it was 1.03; in experiment [6] it was 0.64; in [7], 0.35; in experiment [8] it was 0.63.
Regarding `CC1CC(C)CN(S(=O)(=O)c2ccc3c(c2)/C(=N\O)c2cc(S(=O)(=O)N4CCN(C(=O)CCOCCOCCOCCNc5cccc6c5C(=O)N(C5CCC(=O)NC5=O)C6=O)CC4)ccc2/C3=N\O)C1` (configuration not stated), the IC50 in experiment [1], in experiment [2] and in experiment [3] was greater than 20000 nM each time. Further, the fold change (FC) in experiment [4] was 0.9; in experiment [5], 0.97; in experiment [6], 0.79; in [7], 1.02; in experiment [8], 0.92.
With `CC1CC(C)CN(S(=O)(=O)c2ccc3c(c2)C(=NO)c2cc(S(=O)(=O)N4CC(C)CC(C)C4)ccc2C3=NOCCCNC(=O)CCNc2cccc3c2C(=O)N(C2CCC(=O)NC2=O)C3=O)C1` (configuration not stated), the IC50 in experiment [1] worked out at 323 nM; in experiment [2] it was 651 nM; in experiment [3] it was 189 nM. Besides, the fold change (FC) is 0.97 in experiment [4]; 0.54 in experiment [5]; 0.5 in [6]; 0.56 in [7]; 0.41 in experiment [8]. Further, the Activity entry in [9] is “Dose-Dependent Effect”.
As for `CC1CC(C)CN(S(=O)(=O)c2ccc3c(c2)/C(=N/O)c2cc(S(=O)(=O)N4CCN(C(=O)CCCCCCCCCCNc5cccc6c5C(=O)N(C5CCC(=O)NC5=O)C6=O)CC4)ccc2/C3=N\O)C1` (configuration not stated), the results for the IC50 in experiment [1], in experiment [2] and in experiment [3] were 1160 nM, 1160 nM and 2500 nM, respectively. In addition, the fold change (FC) came out at 0.98 in experiment [4]; 1.08 in experiment [5]; 0.92 in experiment [6]; 1.04 in experiment [7]; 0.99 in experiment [8].
For the compound `CC1CC(C)CN(S(=O)(=O)c2ccc3c(c2)/C(=N\O)c2cc(S(=O)(=O)N4CCN(C(=O)CCOCCOCCNc5cccc6c5C(=O)N(C5CCC(=O)NC5=O)C6=O)CC4)ccc2/C3=N\O)C1` (configuration not stated), the IC50 in experiment [1], in experiment [2] and in [3] was greater than 20000 nM each time. The fold change (FC) in [4] amounted to 1.07; in [5] it was 0.97; in experiment [6], 1.06; in experiment [7], 0.99; in [8], 0.94.
For `CC1CC(C)CN(S(=O)(=O)c2ccc3c(c2)C(=NO)c2cc(S(=O)(=O)N4CC(C)CC(C)C4)ccc2C3=NOCCCNC(=O)CCCCCCNc2cccc3c2C(=O)N(C2CCC(=O)NC2=O)C3=O)C1` (configuration not stated), the concentration for half-maximal inhibition (IC50) in [1] is 530 nM; in [2] it was 929 nM; in [3], 355 nM. The fold change (FC) came out at 0.8 in experiment [4]; 0.44 in [5]; 0.74 in experiment [6]; 0.74 in experiment [7]; 0.61 in [8]. Moreover, the Activity result in experiment [9] was “Dose-Dependent Effect”.
In the case of `CC1CC(C)CN(S(=O)(=O)c2ccc3c(c2)C(=NO)c2cc(S(=O)(=O)N4CC(C)CC(C)C4)ccc2C3=NOCCCNC(=O)CCOCCOCCOCCNc2cccc3c2C(=O)N(C2CCC(=O)NC2=O)C3=O)C1` (configuration not stated), the IC50 in [1], in experiment [2] and in [3] was greater than 20000 nM throughout. Also, the fold change (FC) in experiment [4] was found to be 0.6; in [5], 0.58; in experiment [6], 0.59; in experiment [7] it was 0.49; in experiment [8], 0.46.
Consider `CC1CC(C)CN(S(=O)(=O)c2ccc3c(c2)C(=NO)c2cc(S(=O)(=O)N4CC(C)CC(C)C4)ccc2C3=NOCCCNC(=O)CCCCNc2cccc3c2C(=O)N(C2CCC(=O)NC2=O)C3=O)C1` (configuration not stated), for which the half-inhibitory concentration (IC50) in [1] was 523 nM; in [2], 795 nM; in experiment [3], 398 nM. Besides, the fold change (FC) turned out to be 0.87 in [10]; 0.4 in experiment [4]; 1.46 in experiment [5]; 0.61 in [6]; 0.27 in experiment [7]; 0.92 in experiment [11]. Also, the fold change (FC) worked out at 0.53 in experiment [8] and 0.82 in experiment [12]. In addition, the Activity result in experiment [9] is “Dose-Dependent Effect”.
